Data set [1] deals with HepG2 cells. Briefly: Fatty acid-induced intracellular fat accumulation (BODIPY fluorescence) in non-alcoholic fatty liver cell model. It counts as cell-based, human. As to the method:
The human liver-derived HepG2 cell line was purchased from American Type Culture Collection (ATCC, VA, USA). HepG2 cells were cultured at 37° C. in an incubator supplied with 5% carbon dioxide. For the cell culture, MEM (Gibco Cat No. 11095-098) medium containing 10% fetal bovine serum (FBS) and 1% antibiotics (Penicillin-streptomycin, Gibco) was used. HepG2 cells were seeded in a 96-well plate at 1×10^4 cells/well, and, after 24 hours, treated with 150 μM oleic acid (Sodium oleate, Sigma, USA) for 24 hours to increase intracellular fat accumulation. The drug treated group was treated 1 hour before being treated with oleic acid. Upon completion of the experiment, the cells were fixed with 4% formaldehyde for 10 minutes and washed twice with PBS buffer. A solution containing […] (Invitrogen Corporation, NY, USA) was added and cultured at room temperature for 30 minutes. At this time, the final concentration of the fluorescent dye BODIPY was 2 μg/ml. After completion of the reaction, the plate was washed three times with PBS buffer, and, when only the minimum amount of PBS remained, the fluorescence was quantified by using a SpectraMax M4 microplate reader (Molecular Devices, USA). At this time, the excitation wavelength was 485 nm, and the emission was 525 nm. The experiment was performed by blocking light with aluminum foil to allow in as little light as possible.

Data set [2] deals with HepG2 cells. The data set is described as follows: Cell viability (CCK-8) of fatty acid-induced non-alcoholic fatty liver cell model. The note with it: Table 6, Garcinia extract 0 + Chiisanogenin 6 μg/ml. Type of data set: cell-based, human. As to the method: The human liver-derived HepG2 cell line was purchased from American Type Culture Collection (ATCC, VA, USA). HepG2 cells were cultured at 37° C. in an incubator supplied with 5% carbon dioxide. For the cell culture, MEM (Gibco Cat No. 11095-098) medium containing 10% fetal bovine serum (FBS) and 1% antibiotics (Penicillin-streptomycin, Gibco) was used. HepG2 cells were seeded in a 96-well plate at 1×10^4 cells/well, and, after 24 hours, treated with 150 μM oleic acid (Sodium oleate, Sigma, USA) for 24 hours to increase intracellular fat accumulation. The drug treated group was treated 1 hour before being treated with oleic acid. […] After completion of the reaction, the plate was washed three times with PBS buffer, and, when only the minimum amount of PBS remained, the fluorescence was quantified by using a SpectraMax M4 microplate reader (Molecular Devices, USA). […]
In the experimental conditions of the present invention, cell viability was determined by mixing 90 μl of medium with 10 μl of CCK-8 solution, adding 100 μl per well and reacting the mixture for at least 30 minutes to 1 hour, followed by measurement of the absorbance at 450 nm, as described in the CCK-8 (Dojindo) kit. The cell viability was calculated according to Equation 1 below, taking the negative control as 100%, and the results are shown in Tables 8 and 9 below.

Data set [3] concerns non-alcoholic steatohepatitis (NASH) animal models. Briefly: AST in serum of non-alcoholic steatohepatitis (NASH) animal model. Type of data set: in vivo, C57bl/6J mice. The following applies: NASH mice, 8 weeks, Chiisanogenin 50 mg/kg. The procedure: (§1) 8-week-old male C57bl/6J mice were fed a NASH-inducing diet (#A06071302 diet) for 8 weeks, and, from the 9th week, single samples (i.e., Garcinia extract, Acanthopanax extract or Chiisanogenin) and a composite sample thereof were administered for 8 weeks, together with NASH dietary feed (#A06071302 diet). To verify the efficacy of each of the Garcinia extract (notified raw material, 60% HCA) and Chiisanogenin or their mixture at each non-clinical administration concentration by using a non-alcoholic steatohepatitis (NASH)-induced animal model, changes of aspartate aminotransferase (AST) and alanine aminotransferase (ALT), which are biomarkers of liver tissue damage, in the serum of the non-alcoholic steatohepatitis (NASH) C57bl/6J mouse models caused by feeding NASH-inducing dietary feed (#A06071302) were observed, and the results are shown in Tables 11 and 12, respectively. In addition, the results of observing changes of hydroxyproline, which is a biomarker of liver fibrosis, in liver tissues are shown in Table 13.

For data set [4] the test system is unchanged. Briefly: ALT in serum of non-alcoholic steatohepatitis (NASH) animal model. The note with it: NASH mice, 8 weeks, Chiisanogenin 50 mg/kg. It counts as in vivo, C57bl/6J mice. The procedure: as §1
Data set [5] has the same test system. The data set is described as follows: Fibrosis marker hydroxyproline in liver tissue of NASH animal model. Type of data set: in vivo, C57bl/6J mice. The following applies: NASH mice, 8 weeks, Chiisanogenin 50 mg/kg. As to the method:
as §1

One may read the inhibition as how much of the control response was suppressed.

For `C=C(C)[C@@H]1CC[C@]2(C(=O)O)CC[C@]3(C)[C@H](C[C@H]4OC(=O)C[C@@H](O)[C@]5(C)[C@@H]4[C@@]3(C)CC[C@H]5C(=C)C)[C@@H]12` [Chiisanogenin], the inhibition at 6 µg/mL with HepG2 cells [1] (Homo sapiens, HepG2, Table 4, fat accumulation, Garcinia extract 0 + Chiisanogenin 6 μg/ml, read-out: Inhibition rate (%)) amounted to 80%. Further, the “TG (% relative to positive control group, mean ± deviation)” value in the data set on HepG2 cells [1] (Table 4, Garcinia extract 0 + Chiisanogenin 6 μg/ml) is on record as 64 ± 7.9 %. Also, in the data set with HepG2 cells [2], the “Cell viability (%, mean ± deviation)” value was found to be 105 ± 13.7%. The “AST in serum (% relative to positive control group, mean ± deviation)” value in data set [3] is reported as 97 ± 15.4%. The “Inhibition rate (%, mean ± deviation)” value came to 4 ± 19.8% in data set [3] (serum AST), 12 ± 5.1% in data set [4] (serum ALT) and 26 ± 11.9% in data set [5] (liver hydroxyproline). In addition, the “ALT in serum (% relative to positive control group, mean ± deviation)” value in data set [4] is listed as 89 ± 14.6%. For the same molecule, the “Hydroxyproline in liver tissues (% relative to positive control group, mean ± deviation)” value in data set [5] amounted to 69 ± 28%.

The record behind these values is patent US20240261356A1, “COMPOSITION CONTAINING ACANTHOPANAX EXTRACT AND GARCINIA CAMBOGIA EXTRACT OR COMPOUND ISOLATED THEREFROM AS ACTIVE INGREDIENT FOR PREVENTION OR TREATMENT OF LIVER DISEASE” (KOREA RESEARCH INSTITUTE OF BIOSCIENCE AND BIOTECHNOLOGY, priority 2021, published 2024).
